In patent US10633345B2, “Human plasma kallikrein inhibitors” (BioCryst Pharmaceuticals, Inc., priority 2014, dated 2020):

Tests used:
[1] = tested on: patients with hereditary angioedema (HAE); settings: cited from earlier work
human plasma kallikrein = human plasma kallikrein (Homo sapiens (Human), UniProt P03952); test: Plasma kallikrein activity assay (chromogenic substrate S2302); assay type: biochemical; settings: 2 nM kallikrein, 80 μM S2302, 30° C., pH 7.8; Cheng-Prusoff; values given as bins
Sequence of human plasma kallikrein (P03952 whole entry, looked up): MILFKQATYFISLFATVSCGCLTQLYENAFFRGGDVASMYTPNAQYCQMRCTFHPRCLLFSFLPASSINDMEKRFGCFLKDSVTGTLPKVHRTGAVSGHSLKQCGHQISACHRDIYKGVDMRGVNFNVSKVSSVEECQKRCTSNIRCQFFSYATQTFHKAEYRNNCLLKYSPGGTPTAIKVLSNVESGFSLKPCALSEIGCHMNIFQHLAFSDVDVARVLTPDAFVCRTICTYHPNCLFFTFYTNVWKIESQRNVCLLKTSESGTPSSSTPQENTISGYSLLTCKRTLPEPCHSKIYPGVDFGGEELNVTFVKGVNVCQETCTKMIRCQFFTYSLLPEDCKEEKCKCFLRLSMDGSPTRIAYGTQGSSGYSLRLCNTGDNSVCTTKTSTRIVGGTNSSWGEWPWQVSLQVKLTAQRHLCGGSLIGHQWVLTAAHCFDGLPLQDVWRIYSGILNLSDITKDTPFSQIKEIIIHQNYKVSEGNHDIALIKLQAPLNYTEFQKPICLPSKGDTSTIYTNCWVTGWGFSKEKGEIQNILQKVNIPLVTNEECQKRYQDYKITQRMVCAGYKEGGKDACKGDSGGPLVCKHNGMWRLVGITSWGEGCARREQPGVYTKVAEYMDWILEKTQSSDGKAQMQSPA
Sequence of human plasma kallikrein (P03952 whole entry partner, looked up): as the sequence (P03952 whole entry, looked up) above
Procedure: Plasma Kallikrein Activity Assay.
The effect of compounds of the invention on human plasma kallikrein activity was determined using the chromogenic substrates (DiaPharma Group, Inc., West Chester, Ohio, USA). In these experiments, 2 nM kallikrein (Enzyme Research Laboratories, South Bend, Ind., USA) was incubated with 80 μM S2302 (H-D-Pro-Phe-Arg-p-nitroaniline) in the absence or presence of increasing concentrations of compounds of the invention in a final volume of 200 μL Tris-HCl buffer (200 mM NaCl; 2.5 mM CaCl2; 50 mM Tris-HCl, pH 7.8).
Data were analyzed using SigmaPlot software (Systat Software, Inc., San Jose, Calif., USA) (Four Parameter Logistic Curve).

[2] = tested on: mouse model of middle cerebral artery occlusion (MCAO); settings: cited from earlier work

In the case of ecallantide [DX-88], the “edema in patients with hereditary angioedema (HAE)” value [1] is listed as “alleviates edema”.

For N#Cc1cccc(C(N)(CCC2CC2)c2ccc(F)c(NC(=O)c3cc(C(F)(F)F)nn3-c3cccc(C(N)=O)c3)c2)c1 (single isomer, unassigned; (-)) [Compound 267c, (−)-N-(5-(1-amino-1-(3-cyanophenyl)-3-cyclopropylpropyl)-2-fluorophenyl)-1-(3-carbamoylphenyl)-3-(trifluoromethyl)-1H-pyrazole-5-carboxamide], the Ki (human plasma kallikrein) was over 100 nM.

B1: C1-inhibitor: "a physiological inhibitor (C1-inhibitor)" (protein, UniProt P05155 23-500, looked up)
Plasma protease C1 inhibitor: NPNATSSSSQDPESLQDRGEGKVATTVISKMLFVEPILEVSSLPTTNSTTNSATKITANTTDEPTTQPTTEPTTQPTIQPTQPTTQLPTDSPTQPTTGSFCPGPVTLCSDLESHSTEAVLGDALVDFSLKLYHAFSAMKKVETNMAFSPFSIASLLTQVLLGAGENTKTNLESILSYPKDFTCVHQALKGFTTKGVTSVSQIFHSPDLAIRDTFVNASRTLYSSSPRVLSNNSDANLELINTWVAKNTNNKISRLLDSLPSDTRLVLLNAIYLSAKWKTTFDPKKTRMEPFHFKNSVIKVPMMNSKKYPVAHFIDQTLKAKVGQLQLSHNLSLVILVPQNLKHRLEDMEQALSPSVFKAIMEKLEMSKFQPTLLTLPRIKVTTSQDMLSIMEKLEFFDFSYDLNLCGLTEDPDLQVSAMQHQTVLELTETGVEAAAASAISVARTLLVFEVQQPFLFVLWDQQHKFPVFMGRVYDPRA
In the case of B1, the infarct size [2] is listed as “reduced”.
